Patent publication US11629171B2, “Beta-hairpin peptidomimetics” (POLYPHOR AG, priority 2017, dated 2023)
≈ marks a conversion by molar mass, not a printed value. Where a SMILES comes first, the peptide text is derived from it. Bridges are numbered along the chain shown (N, C = ends). Roman numbers before positions name the chains, in order. [ ]: non-standard residue; d: D form. Leu(3R-OH) = CC(C)[C@@H](O)[C@H](N)C(=O)O; d(pGlu) = O=C1CC[C@H](C(=O)O)N1; Thr(ol) = C[C@@H](O)[C@H](N)CO; Tle = CC(C)(C)[C@H](N)C(=O)O; dDab = NCC[C@@H](N)C(=O)O; hSer = N[C@@H](CCO)C(=O)O; Orn = NCCC[C@H](N)C(=O)O; Dab = NCC[C@H](N)C(=O)O; Nva = CCC[C@H](N)C(=O)O; Dap = NC[C@H](N)C(=O)O

What was measured:
Assay type in all cases: cell-based
[1] = test system: Acinetobacter baumannii DSM 30008; details: DSM 30008
How it was run: (§1)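 Two-fold peptide dilutions in polysorbate 80-containing (0.002% final) cation-adjusted Mueller-Hinton II broth were inoculated with about 10^6 CFU/mL. The MIC was taken as the lowest concentration, in μg/mL, preventing visible growth at 18-20 hours and 35° C.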

[2] = test system: Acinetobacter baumannii 872842; details: 872842
How it was run: as §1

[3] = test system: Escherichia coli ATCC 25922; details: ATCC 25922
How it was run: as §1

[4] = test system: Klebsiella pneumoniae 968733; details: 968733
How it was run: as §1

[5] = test system: Escherichia coli 926415; details: 926415
How it was run: as §1

[6] = test system: Enterobacter cloacae 848840; details: 848840
How it was run: as §1

[7] = test system: Klebsiella pneumoniae SSI #3010; details: SSI #3010
How it was run: as §1

[8] = test system: Pseudomonas aeruginosa ATCC 27853; details: ATCC 27853
How it was run: as §1

[9] = test system: human red blood cells (hRBC); experiment: Hemolysis; details: red cells of human, 1 h, 200
How it was run: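 hRBC washed 4× in PBS; 200 μg/mL peptide + 20% (v/v) hRBC, 1 h, 37° C, 300 rpm. Spin, supernatant ~7.5-fold diluted, OD540 blank corrected. % hemolysis = OD540 peptide / OD540 Triton X-100 × 100.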

| Compound | MIC [1] [µg/mL] | MIC [2] [µg/mL] | MIC [3] [µg/mL] | MIC [4] [µg/mL] | MIC [5] [µg/mL] | MIC [6] [µg/mL] | MIC [7] [µg/mL] | MIC [8] [µg/mL] | Acinetobacter baumannii DSM 30008 MIC [1] [µg/mL] | Escherichia coli ATCC 25922 MIC [3] [µg/mL] | Klebsiella pneumoniae SSI #3010 MIC [7] [µg/mL] | Pseudomonas aeruginosa ATCC 27853 MIC [8] [µg/mL] | Hemolysis at 200 μg/mL [9] [%] |
| --- | --- | --- | --- | --- | --- | --- | --- | --- | --- | --- | --- | --- | --- |
| CC(=O)N[C@@H](CCN)C(=O)N[C@H](C(=O)N[C@H](C(=O)N[C@@H](Cc1ccc(O)cc1)C(=O)N[C@H]1CSSC[C@@H](C(=O)N[C@H](C(=O)N[C@@H](C)C(=O)N[C@H](C(N)=O)C(C)C)C(C)(C)C)NC(=O)[C@H](Cc2c[nH]c3ccccc23)NC(=O)[C@H](CO)NC(=O)[C@@H](CCN)NC(=O)[C@H](CCC(=O)N[C@@H](CCN)C(=O)N[C@H](C(=O)N[C@@H](CN)C(=O)N[C@H]2CCNC(=O)[C@H]([C@@H](C)O)NC(=O)[C@H](CCN)NC(=O)[C@H](CCN)NC(=O)[C@H](CC(C)C)NC(=O)[C@@H](CC(C)C)NC(=O)[C@H](CCN)NC2=O)[C@@H](C)O)NC1=O)[C@@H](C)O)C(C)C [Ex. 238] (I: Ac-[Dab]VTYCE[dDab]SWC[Tle]AV-NH2 / II: [Dab]T[Dap][Dab][Dab][dL]L[Dab][Dab]T; disulfide I:5-I:10; amide I:6-II:N; lactam II:4-II:C) | 0.03125 (≈ 0.0125 µM) | 0.0625 (≈ 0.0249 µM) | 0.0625 (≈ 0.0249 µM) | 0.25 (≈ 0.0996 µM) | 0.125 (≈ 0.0498 µM) | 0.125 (≈ 0.0498 µM) | 0.125 (≈ 0.0498 µM) | 0.125 (≈ 0.0498 µM) |  |  |  |  | 2 |
| CC(=O)N[C@H](C(=O)N[C@H]1CSSC[C@@H](C(=O)N[C@@H](CO)C(N)=O)NC(=O)[C@H](C(C)C)NC(=O)[C@H](CO)NC(=O)[C@H](Cc2c[nH]c3ccccc23)NC(=O)[C@H](CCC(=O)N[C@@H](CCN)C(=O)N[C@H](C(=O)N[C@@H](CN)C(=O)N[C@H]2CCNC(=O)[C@H]([C@@H](C)O)NC(=O)[C@H](CCN)NC(=O)[C@H](CCN)NC(=O)[C@H](CC(C)C)NC(=O)[C@@H](CC(C)C)NC(=O)[C@H](CCN)NC2=O)[C@@H](C)O)NC(=O)[C@@H](CCN)NC(=O)CNC(=O)[C@H](CCN)NC(=O)[C@H](Cc2ccc(O)cc2)NC1=O)C(C)C [Ex. 360] (I: Ac-VCY[Dab]G[dDab]EWSVCS-NH2 / II: [Dab]T[Dap][Dab][Dab][dL]L[Dab][Dab]T; disulfide I:2-I:11; amide I:7-II:N; lactam II:4-II:C) |  | 0.125 (≈ 0.0528 µM) |  | 0.5 (≈ 0.211 µM) | 0.25 (≈ 0.106 µM) | 0.125 (≈ 0.0528 µM) |  |  | 0.0625 | 0.0625 | 0.0625 | 0.125 | 2 |
| CC[C@H](C)[C@H](NC(C)=O)C(=O)N[C@H]1CCCNC(=O)[C@@H]([C@H](C)O)NC(=O)[C@H](C(C)(C)C)NC(=O)[C@H](CO)NC(=O)[C@H](Cc2c[nH]c3ccccc23)NC(=O)[C@H](CCO)NC(=O)[C@@H](CCN)NC(=O)[C@H](CCC(=O)N[C@@H](CCN)C(=O)N[C@H](C(=O)N[C@@H](CN)C(=O)N[C@H]2CCNC(=O)[C@H]([C@@H](C)O)NC(=O)[C@H](CCN)NC(=O)[C@H](CCN)NC(=O)[C@H](CC(C)C)NC(=O)[C@@H](CC(C)C)NC(=O)[C@H](CCN)NC2=O)[C@@H](C)O)NC(=O)[C@H](CN)NC(=O)[C@H](Cc2ccc(O)cc2)NC1=O [Ex. 32] (I: Ac-I[Orn]Y[Dap]E[dDab][hSer]WS[Tle][dT] / II: [Dab]T[Dap][Dab][Dab][dL]L[Dab][Dab]T; lactam I:2-I:C, II:4-II:C; amide I:5-II:N) | 0.0625 (≈ 0.0268 µM) | 0.0625 (≈ 0.0268 µM) | 0.0625 (≈ 0.0268 µM) | 0.25 (≈ 0.107 µM) | 0.0625 (≈ 0.0268 µM) | 0.125 (≈ 0.0536 µM) | 0.125 (≈ 0.0536 µM) | 0.25 (≈ 0.107 µM) |  |  |  |  | <1 |
| CC(=O)N[C@@H](CCN)C(=O)N[C@H](C(=O)N[C@H]1CSSC[C@@H](C(=O)N[C@H](C(N)=O)C(C)C)NC(=O)[C@H](C(C)C)NC(=O)[C@@H]2CSSC[C@H](NC(=O)[C@H](Cc3ccc(O)cc3)NC1=O)C(=O)N[C@@H](CCC(=O)N[C@@H](CCN)C(=O)N[C@H](C(=O)N[C@@H](CN)C(=O)N[C@H]1CCNC(=O)[C@H]([C@@H](C)O)NC(=O)[C@H](CCN)NC(=O)[C@H](CCN)NC(=O)[C@H](CC(C)C)NC(=O)[C@@H](CC(C)C)NC(=O)[C@H](CCN)NC1=O)[C@@H](C)O)C(=O)N[C@H](CCN)C(=O)N[C@@H](CO)C(=O)N[C@@H](Cc1c[nH]c3ccccc13)C(=O)N2)[C@H](O)C(C)C [Ex. 235] (I: Ac-[Dab][Leu(3R-OH)]CYCE[dDab]SWCVCV-NH2 / II: [Dab]T[Dap][Dab][Dab][dL]L[Dab][Dab]T; disulfide I:3-I:12, I:5-I:10; amide I:6-II:N; lactam II:4-II:C) | 0.0625 (≈ 0.0244 µM) | 0.0625 (≈ 0.0244 µM) | 0.0625 (≈ 0.0244 µM) | 0.25 (≈ 0.0977 µM) | 0.125 (≈ 0.0489 µM) | 0.25 (≈ 0.0977 µM) | 0.25 (≈ 0.0977 µM) | 0.25 (≈ 0.0977 µM) |  |  |  |  | 4 |
| CC(C)C[C@@H]1NC(=O)[C@@H](CC(C)C)NC(=O)[C@H](CCN)NC(=O)[C@@H](NC(=O)[C@H](CN)NC(=O)[C@@H](NC(=O)[C@H](CCN)NC(=O)CC[C@@H]2NC(=O)[C@H](CN)NC(=O)[C@H](Cc3ccc(O)cc3)NC(=O)[C@@H](NC(=O)[C@@H](NC(=O)[C@H]3CCC(=O)N3)C(C)C)CSSC[C@@H](C(=O)N[C@H](CO)[C@@H](C)O)NC(=O)[C@H](C(C)(C)C)NC(=O)[C@H](CO)NC(=O)[C@H](Cc3c[nH]c4ccccc34)NC(=O)[C@H]([C@@H](C)O)NC(=O)[C@@H](CCN)NC2=O)[C@@H](C)O)CCNC(=O)[C@H]([C@@H](C)O)NC(=O)[C@H](CCN)NC(=O)[C@H](CCN)NC1=O [Ex. 233] (I: [d(pGlu)]VCY[Dap]E[dDab]TWS[Tle]C[Thr(ol)] / II: [Dab]T[Dap][Dab][Dab][dL]L[Dab][Dab]T; disulfide I:3-I:12; amide I:6-II:N; lactam II:4-II:C) | 0.0625 (≈ 0.0252 µM) | 0.0625 (≈ 0.0252 µM) | 0.03125 (≈ 0.0126 µM) | 0.0625 (≈ 0.0252 µM) | 0.0625 (≈ 0.0252 µM) | 0.125 (≈ 0.0503 µM) | 0.0625 (≈ 0.0252 µM) | 0.125 (≈ 0.0503 µM) |  |  |  |  | <1 |

Continued, in another order:

| MIC [1] [µg/mL] | MIC [2] [µg/mL] | MIC [3] [µg/mL] | MIC [4] [µg/mL] | MIC [5] [µg/mL] | MIC [6] [µg/mL] | MIC [7] [µg/mL] | MIC [8] [µg/mL] | Acinetobacter baumannii DSM 30008 MIC [1] [µg/mL] | Escherichia coli ATCC 25922 MIC [3] [µg/mL] | Klebsiella pneumoniae SSI #3010 MIC [7] [µg/mL] | Pseudomonas aeruginosa ATCC 27853 MIC [8] [µg/mL] | Compound | Hemolysis at 200 μg/mL [9] [%] |
| --- | --- | --- | --- | --- | --- | --- | --- | --- | --- | --- | --- | --- | --- |
|  | 0.03125 (≈ 0.0126 µM) |  | 0.0625 (≈ 0.0252 µM) | 0.01562 (≈ 0.00629 µM) | 0.03125 (≈ 0.0126 µM) |  |  | 0.007813 | 0.01562 | 0.03125 | 0.0625 | CC(=O)N[C@H](C(=O)N[C@H]1CSSC[C@@H](C(=O)N[C@@H](C)C(=O)N[C@@H](C(N)=O)[C@H](C)O)NC(=O)[C@H](C(C)C)NC(=O)[C@H](CO)NC(=O)[C@H](Cc2c[nH]c3ccccc23)NC(=O)[C@H](CO)NC(=O)[C@@H](CCN)NC(=O)[C@H](CCC(=O)N[C@@H](CCN)C(=O)N[C@H](C(=O)N[C@@H](CN)C(=O)N[C@H]2CCNC(=O)[C@H]([C@@H](C)O)NC(=O)[C@H](CCN)NC(=O)[C@H](CCN)NC(=O)[C@H](CC(C)C)NC(=O)[C@@H](CC(C)C)NC(=O)[C@H](CCN)NC2=O)[C@@H](C)O)NC(=O)[C@H](CCN)NC(=O)[C@H](Cc2ccc(O)cc2)NC1=O)C(C)C [Ex. 368] (I: Ac-VCY[Dab]E[dDab]SWSVCA[dT]-NH2 / II: [Dab]T[Dap][Dab][Dab][dL]L[Dab][Dab]T; disulfide I:2-I:11; amide I:5-II:N; lactam II:4-II:C) | 1 |
| 0.0625 (≈ 0.0261 µM) | 0.0625 (≈ 0.0261 µM) | 0.03125 (≈ 0.013 µM) | 0.125 (≈ 0.0521 µM) | 0.125 (≈ 0.0521 µM) | 0.5 (≈ 0.208 µM) | 0.125 (≈ 0.0521 µM) | 0.25 (≈ 0.104 µM) |  |  |  |  | CCC[C@@H]1NC(=O)[C@H](CO)NC(=O)[C@H](Cc2c[nH]c3ccccc23)NC(=O)[C@H](CCN)NC(=O)[C@@H](CCN)NC(=O)[C@H](CCC(=O)N[C@@H](CCN)C(=O)N[C@H](C(=O)N[C@@H](CN)C(=O)N[C@H]2CCNC(=O)[C@H]([C@@H](C)O)NC(=O)[C@H](CCN)NC(=O)[C@H](CCN)NC(=O)[C@H](CC(C)C)NC(=O)[C@@H](CC(C)C)NC(=O)[C@H](CCN)NC2=O)[C@@H](C)O)NC(=O)[C@H](CO)NC(=O)[C@H](Cc2ccc(O)cc2)NC(=O)[C@@H](NC(=O)[C@@H](NC(C)=O)C(C)C)CSSC[C@@H](C(=O)N[C@@H](CO)C(N)=O)NC1=O [Ex. 264] (I: Ac-VCYSE[dDab][Dab]WS[Nva]CS-NH2 / II: [Dab]T[Dap][Dab][Dab][dL]L[Dab][Dab]T; disulfide I:2-I:11; amide I:5-II:N; lactam II:4-II:C) | <1 |
